# Source: patent US11051515B2, “3-acyl-benzamides and their use as herbicides” (Bayer Aktiengesellschaft, priority 2017, dated 2021)
# Legend:
# ECHCG [1] = experiment: Post-emergence action against ECHCG; type: in vivo, Echinochloa crus-galli; settings: post-emergence, dosage 80 g/ha, visual assessment about 3 weeks after treatment vs untreated controls
# Outline: (§1)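 Post-emergence foliar spray on greenhouse plants at the one-leaf stage, using wettable-powder or emulsion-concentrate formulations in water (600 to […], plus 0.2% wetting agent). Damage scored by eye roughly 3 weeks later against untreated plants: 0% = like control, 100% = dead.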
# VERPE [2] = experiment: Pre-emergence action against VERPE; type: in vivo, Veronica persica; settings: Dosage 320 g/ha, pre-emergence
# Outline: (§2)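 Seeds sown in sandy loam in wood-fiber pots and covered with soil. Greenhouse growth; visual damage scored after 3 weeks versus untreated controls (100% = dead, 0% = like control).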
# POLCO [3] = experiment: Post-emergence action against POLCO; type: in vivo, Polygonum convolvulus; settings: post-emergence, dosage 80 g/ha
# Outline: as §1
# PHBPU [4] = experiment: Post-emergence action against PHBPU; type: in vivo, Pharbitis purpurea; settings: post-emergence, dosage 80 g/ha
# Outline: as §1
# DIGSA [5] = experiment: Pre-emergence action against DIGSA; type: in vivo, Digitaria sanguinalis; settings: dosage 320 g/ha, scored visually after 3 weeks vs untreated controls
# Outline: as §2
# SETVI [6] = experiment: Pre-emergence action against SETVI; type: in vivo, Setaria viridis; settings: pre-emergence, dosage 320 g/ha, scored visually after 3 weeks vs untreated controls
# Outline: as §2
# AMARE [7] = experiment: Post-emergence action against AMARE; type: in vivo, Amaranthus retroflexus; settings: post-emergence, dosage 80 g/ha, visual assessment about 3 weeks after treatment vs untreated controls
# Outline: as §1
# VIOTR [8] = experiment: Post-emergence action against VIOTR; type: in vivo, Viola tricolor; settings: post-emergence, dosage 80 g/ha
# Outline: as §1
# HORMU = experiment: Pre-emergence action against HORMU; type: in vivo, Hordeum murinum; settings: Dosage 320 g/ha
# Outline: as §2
# ALOMY [9] = experiment: Pre-emergence action against ALOMY; type: in vivo, Alopecurus myosuroides; settings: dosage 320 g/ha, pre-emergence, scored visually after 3 weeks vs untreated controls, 100% = plants have died, 0% = like control plants
# Outline: as §2
# POLCO [10] = experiment: Pre-emergence action against POLCO; type: in vivo, Polygonum convolvulus; settings: Fallopia convolvulus, 504 h; Dosage 320 g/ha, pre-emergence
# Outline: as §2
# VERPE [11] = experiment: Post-emergence action against VERPE; type: in vivo, Veronica persica; settings: dosage 80 g/ha
# Outline: as §1
# STEME [12] = experiment: Pre-emergence action against STEME; type: in vivo, Stellaria media; settings: Dosage 320 g/ha, pre-emergence
# Outline: as §2
# MATIN [13] = experiment: Post-emergence action against MATIN; type: in vivo, Matricaria inodora; settings: post-emergence, dosage 80 g/ha, visual assessment about 3 weeks after treatment vs untreated controls
# Outline: as §1
# ABUTH [14] = experiment: Post-emergence action against ABUTH; type: in vivo, Abutilon theophrasti; settings: post-emergence, dosage 80 g/ha, visual assessment about 3 weeks after treatment vs untreated controls
# Outline: as §1
# STEME [15] = experiment: Post-emergence action against STEME; type: in vivo, Stellaria media; settings: post-emergence, dosage 80 g/ha
# Outline: as §1
# LOLRI = experiment: Pre-emergence action against LOLRI; type: in vivo, Lolium rigidum; settings: dosage 320 g/ha, scored visually after 3 weeks vs untreated controls
# Outline: as §2
# DIGSA [16] = experiment: Post-emergence action against DIGSA; type: in vivo, Digitaria sanguinalis; settings: dosage 80 g/ha, visual assessment about 3 weeks after treatment vs untreated controls
# Outline: as §1
# VIOTR [17] = experiment: Pre-emergence action against VIOTR; type: in vivo, Viola tricolor; settings: Dosage 320 g/ha, pre-emergence
# Outline: as §2
# AVEFA [18] = experiment: Post-emergence action against AVEFA; type: in vivo, Avena fatua; settings: post-emergence, dosage 80 g/ha, visual assessment about 3 weeks after treatment vs untreated controls
# Outline: as §1
# ECHCG [19] = experiment: Pre-emergence action against ECHCG; type: in vivo, Echinochloa crus-galli; settings: pre-emergence, dosage 320 g/ha, scored visually after 3 weeks vs untreated controls
# Outline: as §2
# AMARE [20] = experiment: Pre-emergence action against AMARE; type: in vivo, Amaranthus retroflexus; settings: pre-emergence, dosage 320 g/ha, scored visually after 3 weeks vs untreated controls
# Outline: as §2
# MATIN [21] = experiment: Pre-emergence action against MATIN; type: in vivo, Matricaria inodora; settings: Dosage 320 g/ha, pre-emergence
# Outline: as §2
# SETVI [22] = experiment: Post-emergence action against SETVI; type: in vivo, Setaria viridis; settings: post-emergence, dosage 80 g/ha, visual assessment about 3 weeks after treatment vs untreated controls
# Outline: as §1
# PHBPU [23] = experiment: Pre-emergence action against PHBPU; type: in vivo, Pharbitis purpurea; settings: Dosage 320 g/ha, pre-emergence
# Outline: as §2
# ABUTH [24] = experiment: Pre-emergence action against ABUTH; type: in vivo, Abutilon theophrasti; settings: pre-emergence, dosage 320 g/ha, scored visually after 3 weeks vs untreated controls
# Outline: as §2
# AVEFA [25] = experiment: Pre-emergence action against AVEFA; type: in vivo, Avena fatua; settings: dosage 320 g/ha, scored visually after 3 weeks vs untreated controls
# Outline: as §2
# ALOMY [26] = experiment: Post-emergence action against ALOMY; type: in vivo, Alopecurus myosuroides; settings: Dosage 80 g/ha, post-emergence
# Outline: as §1
smiles,measurement,setting,value
Cn1nnnc1NC(=O)c1ccc(C(F)(F)F)c(C(=O)C(F)F)c1Cl [1-163],pest or weed control at 80 g/ha,"ECHCG [1]; Echinochloa crus-galli, 504 h, read-out: Post-emergence action against ECHCG (herbicidal action in percent)",90%
same,pest or weed control at 320 g/ha,"VERPE [2]; Veronica persica, 504 h",100%
same,pest or weed control at 80 g/ha,"POLCO [3]; Fallopia convolvulus, 504 h",100%
same,pest or weed control at 80 g/ha,"PHBPU [4]; Ipomoea purpurea, 504 h",90%
same,Pre-emergence action against DIGSA (herbicidal activity),DIGSA [5],100%
same,pest or weed control at 320 g/ha,"SETVI [6]; Setaria viridis, 504 h, read-out: SETVI (Table B8, pre-emergence herbicidal activity)",100%
same,pest or weed control at 80 g/ha,"AMARE [7]; Amaranthus retroflexus, 504 h, read-out: Post-emergence action against AMARE (herbicidal action in percent)",90%
same,pest or weed control at 80 g/ha,"VIOTR [8]; Viola tricolor, 504 h",90%
same,pest or weed control at 320 g/ha,"HORMU; Hordeum murinum, 504 h",90%
same,pest or weed control at 320 g/ha,"ALOMY [9]; Alopecurus myosuroides, 504 h, read-out: Pre-emergence action against ALOMY (herbicidal activity in percent)",90%
same,pest or weed control at 320 g/ha,POLCO [10],90%
same,pest or weed control at 80 g/ha,"VERPE [11]; Veronica persica, 504 h",90%
same,pest or weed control at 320 g/ha,"STEME [12]; Stellaria media, 504 h",100%
same,pest or weed control at 80 g/ha,"MATIN [13]; Tripleurospermum inodorum, 504 h, read-out: Post-emergence action against MATIN (herbicidal action in percent)",90%
same,pest or weed control at 80 g/ha,"ABUTH [14]; Abutilon theophrasti, 504 h, read-out: Post-emergence action against ABUTH (herbicidal action in percent)",90%
same,pest or weed control at 80 g/ha,"STEME [15]; Stellaria media, 504 h",100%
same,pest or weed control at 320 g/ha,"LOLRI; Lolium rigidum, 504 h, read-out: Pre-emergence action against LOLRI (herbicidal activity)",90%
same,Post-emergence action against DIGSA (herbicidal action in percent),DIGSA [16],100%
same,pest or weed control at 320 g/ha,"VIOTR [17]; Viola tricolor, 504 h",100%
same,pest or weed control at 80 g/ha,"AVEFA [18]; Avena fatua, 504 h, read-out: Post-emergence action against AVEFA (herbicidal action in percent)",90%
same,pest or weed control at 320 g/ha,"ECHCG [19]; Echinochloa crus-galli, 504 h, read-out: Pre-emergence action against ECHCG (herbicidal activity)",100%
same,pest or weed control at 320 g/ha,"AMARE [20]; Amaranthus retroflexus, 504 h, read-out: Pre-emergence action against AMARE (herbicidal activity)",100%
same,pest or weed control at 320 g/ha,"MATIN [21]; Tripleurospermum inodorum, 504 h",100%
same,pest or weed control at 80 g/ha,"SETVI [22]; Setaria viridis, 504 h, read-out: Post-emergence action against SETVI (herbicidal action in percent)",80%
same,pest or weed control at 320 g/ha,"PHBPU [23]; Ipomoea purpurea, 504 h",80%
same,pest or weed control at 320 g/ha,"ABUTH [24]; Abutilon theophrasti, 504 h, read-out: Pre-emergence action against ABUTH (herbicidal activity)",100%
same,pest or weed control at 320 g/ha,"AVEFA [25]; Avena fatua, 504 h, read-out: Pre-emergence action against AVEFA (herbicidal activity)",100%
CCCC(=O)c1c(C(F)(F)F)ccc(C(=O)Nc2nnnn2CC)c1C [2-16],Post-emergence action against ECHCG (herbicidal action in percent),ECHCG [1],90%
same,Pre-emergence action against VERPE,VERPE [2],100%
same,Post-emergence action against POLCO,POLCO [3],80
same,Post-emergence action against PHBPU,PHBPU [4],100
same,Pre-emergence action against DIGSA (herbicidal activity),DIGSA [5],100%
same,"SETVI (Table B8, pre-emergence herbicidal activity)",SETVI [6],90%
same,Post-emergence action against AMARE (herbicidal action in percent),AMARE [7],100%
same,Post-emergence action against VIOTR,VIOTR [8],100
same,Pre-emergence action against HORMU,HORMU,80%
same,Pre-emergence action against ALOMY (herbicidal activity in percent),ALOMY [9],90%
same,Post-emergence action against VERPE,VERPE [11],80
same,Pre-emergence action against STEME,STEME [12],90%
same,Post-emergence action against MATIN (herbicidal action in percent),MATIN [13],100%
same,Post-emergence action against ABUTH (herbicidal action in percent),ABUTH [14],100%
same,Post-emergence action against STEME,STEME [15],100
same,Pre-emergence action against LOLRI (herbicidal activity),LOLRI,90%
same,Post-emergence action against DIGSA (herbicidal action in percent),DIGSA [16],90%
same,Pre-emergence action against VIOTR,VIOTR [17],90%
same,Post-emergence action against AVEFA (herbicidal action in percent),AVEFA [18],90%
same,Pre-emergence action against ECHCG (herbicidal activity),ECHCG [19],100%
same,Pre-emergence action against AMARE (herbicidal activity),AMARE [20],100%
same,Pre-emergence action against MATIN,MATIN [21],90%
same,Post-emergence action against SETVI (herbicidal action in percent),SETVI [22],90%
same,Pre-emergence action against PHBPU,PHBPU [23],90%
same,Pre-emergence action against ABUTH (herbicidal activity),ABUTH [24],100%
same,Post-emergence action against ALOMY,ALOMY [26],80%
same,Pre-emergence action against AVEFA (herbicidal activity),AVEFA [25],90%
